The record followed here is patent US20180000085A1, “USE OF PICOLINAMIDE COMPOUNDS WITH FUNGICIDAL ACTIVITY” (DOW AGROSCIENCES LLC, priority 2014, published 2018).

In one test the test system is Zymoseptoria tritici. Description: Leaf blotch of wheat (SEPTTR) disease control on wheat seedlings. As to conditions: for SEPTTR 1DP disease control rating, HV activity / SEPTTR 3DC disease control rating, HV activity: HV application at 100 ppm; for SEPTTR 1DP disease control rating, HV activity / LV activity at 125.1 g/H SEPTTR 1DP (disease control rating) / SEPTTR 1DP, LV activity at 125.1 g/H (% Control rating): 1 Day Protectant; for SEPTTR 1DP disease control rating, HV activity / SEPTTR 3DC disease control rating, HV activity / LV activity at 125.1 g/H SEPTTR 1DP (disease control rating) / LV activity at 125.1 g/H SEPTTR 3DC (disease control rating): wheat leaf blotch; for SEPTTR 3DC disease control rating, HV activity / LV activity at 125.1 g/H SEPTTR 3DC (disease control rating) / SEPTTR 3DC, LV activity at 125.1 g/H (% Control rating): 3 Day Curative; for SEPTTR 1DP disease control rating, HV activity at 100 ppm / SEPTTR 3DC disease control rating, HV activity at 100 ppm: high volume application; for SEPTTR 1DP disease control rating, HV activity at 100 ppm: 1 day protectant; for SEPTTR 3DC disease control rating, HV activity at 100 ppm: 3 day curative; for LV activity at 125.1 g/H SEPTTR 1DP (disease control rating) / LV activity at 125.1 g/H SEPTTR 3DC (disease control rating) / SEPTTR 1DP, LV activity at 125.1 g/H (% Control rating) / SEPTTR 3DC, LV activity at 125.1 g/H (% Control rating): low volume application. Set-up: key to SEPTTR 1DP, HV activity at 100 ppm (% control rating) / SEPTTR 3DC, HV activity at 100 ppm (% control rating) / SEPTTR disease control, 1DP / SEPTTR disease control, 3DC / SEPTTR 1DP disease control rating, HV activity / SEPTTR 3DC disease control rating, HV activity / SEPTTR 3DC, LV activity at 125.1 g/H (% Control rating) / SEPTTR 1DP, LV activity at 125.1 g/H (% Control rating) / SEPTTR 1DP disease control rating, LV activity at 125.1 g/H / SEPTTR 3DC disease control rating, LV activity at 125.1 g/H / SEPTTR 3DC disease control rating, HV activity at 100 ppm / SEPTTR 1DP disease control rating, HV activity at 100 ppm / HV activity at 100 ppm SEPTTR 3DC (disease control rating) / HV activity at 100 ppm SEPTTR 1DP (disease control rating) / LV activity at 125.1 g/H SEPTTR 1DP (disease control rating) / LV activity at 125.1 g/H SEPTTR 3DC (disease control rating): A: > 80; B: ≤ 80; C: Not Tested; D: No Activity Observed in the Reported Assay. In kind it is in vivo.

Another test concerns Puccinia triticina. In words: Wheat brown rust (PUCCRT) disease control on wheat seedlings. In kind it is in vivo. On the set-up: key to PUCCRT 3DC, HV activity at 100 ppm (% control rating) / PUCCRT disease control, 3DC / PUCCRT 1DP disease control rating, HV activity / PUCCRT 3DC disease control rating, HV activity / PUCCRT 3DC, LV activity at 125.1 g/H (% Control rating) / PUCCRT 1DP, LV activity at 125.1 g/H (% Control rating) / PUCCRT 3DC disease control rating, LV activity at 125.1 g/H / PUCCRT 1DP disease control rating, LV activity at 125.1 g/H / PUCCRT 3DC disease control rating, HV activity at 100 ppm / PUCCRT 1DP disease control rating, HV activity at 100 ppm / HV activity at 100 ppm PUCCRT 3DC (disease control rating) / LV activity at 125.1 g/H PUCCRT 1DP (disease control rating) / LV activity at 125.1 g/H PUCCRT 3DC (disease control rating): A: > 80; B: ≤ 80; C: Not Tested; D: No Activity Observed in the Reported Assay. As to conditions: for PUCCRT 1DP disease control rating, HV activity / PUCCRT 3DC disease control rating, HV activity: HV application at 100 ppm; for PUCCRT 1DP disease control rating, HV activity / LV activity at 125.1 g/H PUCCRT 1DP (disease control rating) / PUCCRT 1DP, LV activity at 125.1 g/H (% Control rating): 1 Day Protectant; for PUCCRT 1DP disease control rating, HV activity / PUCCRT 3DC disease control rating, HV activity / LV activity at 125.1 g/H PUCCRT 1DP (disease control rating) / LV activity at 125.1 g/H PUCCRT 3DC (disease control rating): wheat brown rust; for PUCCRT 3DC disease control rating, HV activity / LV activity at 125.1 g/H PUCCRT 3DC (disease control rating) / PUCCRT 3DC, LV activity at 125.1 g/H (% Control rating): 3 Day Curative; for PUCCRT 1DP disease control rating, HV activity at 100 ppm / PUCCRT 3DC disease control rating, HV activity at 100 ppm: high volume application; for PUCCRT 1DP disease control rating, HV activity at 100 ppm: 1 day protectant; for PUCCRT 3DC disease control rating, HV activity at 100 ppm: 3 day curative; for LV activity at 125.1 g/H PUCCRT 1DP (disease control rating) / LV activity at 125.1 g/H PUCCRT 3DC (disease control rating) / PUCCRT 1DP, LV activity at 125.1 g/H (% Control rating) / PUCCRT 3DC, LV activity at 125.1 g/H (% Control rating): low volume application.

Each structure is given as a SMILES string.

`CCC(CC)C(Oc1cc(F)cc(Cl)c1)C(C)OC(=O)C(C)NC(=O)c1nccc(OC)c1O` (stereo not shown) [Cmpd 423]: in the test on Zymoseptoria tritici, the “SEPTTR 1DP disease control rating, HV activity” value is on record as “A (> 80)” and the “SEPTTR 3DC disease control rating, HV activity” value is given as “A (> 80)”. Moreover, in the test with Puccinia triticina, the “PUCCRT 1DP disease control rating, HV activity” value is on record as “A (> 80)” and the “PUCCRT 3DC disease control rating, HV activity” value is given as “B (≤ 80)”.
On to `COc1ccnc(C(=O)NC(C)C(=O)OC(C)C(OCC2CC2)c2ccccc2)c1O` (stereo not shown) [Cmpd 825], for which, in the test on Zymoseptoria tritici, the “SEPTTR 1DP disease control rating, HV activity at 100 ppm” value is “B (≤ 80)” and the “SEPTTR 3DC disease control rating, HV activity at 100 ppm” value is “B (≤ 80)”. For the same compound, in the test with Puccinia triticina, the “PUCCRT 1DP disease control rating, HV activity at 100 ppm” value is recorded as “A (> 80)” and the “PUCCRT 3DC disease control rating, HV activity at 100 ppm” value is recorded as “A (> 80)”.
For `COc1ccnc(C(=O)N[C@@H](C)C(=O)O[C@@H](C)[C@@H](CC(C)C)Oc2cc(F)ccc2F)c1OC(C)=O` [Cmpd 1114], in the test with Zymoseptoria tritici, the “LV activity at 125.1 g/H SEPTTR 1DP (disease control rating)” value is on record as “A (> 80)” and the “LV activity at 125.1 g/H SEPTTR 3DC (disease control rating)” value is given as “A (> 80)”. In the test on Puccinia triticina, the “LV activity at 125.1 g/H PUCCRT 1DP (disease control rating)” value is given as “A (> 80)” and the “LV activity at 125.1 g/H PUCCRT 3DC (disease control rating)” value is reported as “A (> 80)”.
Consider `COc1ccnc(C(=O)N[C@@H](C)C(=O)O[C@@H](C)[C@H](OCC(C)C)C2CCCC2)c1O` [Cmpd 844], for which, in the test with Zymoseptoria tritici, the “SEPTTR 1DP disease control rating, HV activity at 100 ppm” value was “B (≤ 80)” and the “SEPTTR 3DC disease control rating, HV activity at 100 ppm” value was “A (> 80)”. Also, in the test on Puccinia triticina, the “PUCCRT 1DP disease control rating, HV activity at 100 ppm” value was “A (> 80)” and the “PUCCRT 3DC disease control rating, HV activity at 100 ppm” value is listed as “A (> 80)”.
For `COc1ccnc(C(=O)NC(C)C(=O)OC(C)COC(C)(C)C)c1OCOC(C)=O` (stereo not shown) [Cmpd 535], in the test with Zymoseptoria tritici, the “SEPTTR 1DP, LV activity at 125.1 g/H (% Control rating)” value (shortened to “SEPTTR 1DP … (% Control rating)”) is listed as “D” and the “SEPTTR 3DC, LV activity at 125.1 g/H (% Control rating)” value (“SEPTTR 3DC … (% Control rating)” for short) was “B (≤ 80)”. In the test on Puccinia triticina, the “PUCCRT 1DP, LV activity at 125.1 g/H (% Control rating)” value (“PUCCRT 1DP … (% Control rating)” below) is on record as “D” and the “PUCCRT 3DC, LV activity at 125.1 g/H (% Control rating)” value (shortened to “PUCCRT 3DC … (% Control rating)”) is given as “B (≤ 80)”.
As to `COc1ccnc(C(=O)NC(C)C(=O)OC(C)C(OC(=O)c2ccccc2)C(C)C)c1O` (stereo not shown) [Cmpd 431], in the test with Zymoseptoria tritici, the “SEPTTR 1DP disease control rating, HV activity” value was “D” and the “SEPTTR 3DC disease control rating, HV activity” value is reported as “D”. Moreover, in the test on Puccinia triticina, the “PUCCRT 1DP disease control rating, HV activity” value is reported as “A (> 80)” and the “PUCCRT 3DC disease control rating, HV activity” value is reported as “D”.
In the case of `COc1ccnc(C(=O)N[C@@H](C)C(=O)O[C@@H](C)[C@H](Oc2ccc(Cl)cc2Cl)c2ccccc2)c1OCOC(C)=O` [Cmpd 634], in the test on Zymoseptoria tritici, the “SEPTTR 1DP … (% Control rating)” value was “A (> 80)” and the “SEPTTR 3DC … (% Control rating)” value is recorded as “A (> 80)”. For the same compound, in the test on Puccinia triticina, the “PUCCRT 1DP … (% Control rating)” value was “A (> 80)” and the “PUCCRT 3DC … (% Control rating)” value is “B (≤ 80)”.
For the compound `COc1ccnc(C(=O)NC(Cc2ccccc2)C(=O)OC(C)C(Oc2ccccc2)C(C)C)c1O` (mixture of isomers) [Cmpd 812], in the test with Zymoseptoria tritici, the “SEPTTR 1DP disease control rating, HV activity at 100 ppm” value is given as “B (≤ 80)” and the “SEPTTR 3DC disease control rating, HV activity at 100 ppm” value was “B (≤ 80)”. In the test on Puccinia triticina, the “PUCCRT 1DP disease control rating, HV activity at 100 ppm” value is given as “A (> 80)” and the “PUCCRT 3DC disease control rating, HV activity at 100 ppm” value is “A (> 80)”.
Take `COc1ccnc(C(=O)NC(C)C(=O)OC(C)C(CC(C)C)Oc2ccc3ccccc3c2)c1OC(C)=O` (stereo not shown) [Cmpd 1099]: in the test on Zymoseptoria tritici, the “LV activity at 125.1 g/H SEPTTR 1DP (disease control rating)” value was “B (≤ 80)” and the “LV activity at 125.1 g/H SEPTTR 3DC (disease control rating)” value is “D”. Besides, in the test with Puccinia triticina, the “LV activity at 125.1 g/H PUCCRT 1DP (disease control rating)” value is listed as “A (> 80)” and the “LV activity at 125.1 g/H PUCCRT 3DC (disease control rating)” value is listed as “A (> 80)”.
Consider `CC[C@H](NC(=O)c1nccc(OC)c1OC(C)=O)C(=O)O[C@@H](C)[C@@H](COc1ccccc1)Oc1ccccc1` [Cmpd 489], for which, in the test on Zymoseptoria tritici, the “SEPTTR 1DP … (% Control rating)” value was “A (> 80)” and the “SEPTTR 3DC … (% Control rating)” value is on record as “A (> 80)”. In the test with Puccinia triticina, the “PUCCRT 1DP … (% Control rating)” value is “A (> 80)” and the “PUCCRT 3DC … (% Control rating)” value was “A (> 80)”.
